Each structure is given as a SMILES string. pIC50: −log10 of the molar value.

Assay [1] addresses T1, PGF synthase (PGFS) (Homo sapiens, UniProt P42330).
T1 construct: made in house
T1 sequence (P42330 1-323): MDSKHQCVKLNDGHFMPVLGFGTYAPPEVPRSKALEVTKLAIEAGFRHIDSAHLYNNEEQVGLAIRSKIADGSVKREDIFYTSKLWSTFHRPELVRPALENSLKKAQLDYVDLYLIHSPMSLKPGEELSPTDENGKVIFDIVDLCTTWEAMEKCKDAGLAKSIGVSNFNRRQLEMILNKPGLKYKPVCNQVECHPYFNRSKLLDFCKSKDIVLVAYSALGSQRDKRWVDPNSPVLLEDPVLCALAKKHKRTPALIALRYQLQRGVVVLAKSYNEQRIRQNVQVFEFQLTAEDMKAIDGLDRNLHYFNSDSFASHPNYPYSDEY
Briefly: Test on PGF synthase (spectrophotometric, 9,10-phenanthrenequinone/β-NADPH, 340 nm). The assay is classed as biochemical. Particulars: concentration that inhibits 50% of the enzymatic activity of PGF synthase. How it is done:
The enzyme PGFS is obtained as described in document FR-A-02/05067, at a concentration of 0.5 mg/ml, as a suspension in a suitable medium, and blocked at −80° C. For the purposes of the test, this suspension is thawed and stored in ice.
In parallel, a 100 mM, pH 6.5 Tris buffer containing 20 μM of 9,10-phenanthrenequinone* (P2896, Sigma-Aldrich, L'isle D'Abeau Chesne, BP 701, 38297, Saint Quentin Fallavier) and 100 μM of β-NADPH (N1630, Sigma-Aldrich, L'isle D'Abeau Chesne, BP 701, 38297, Saint Quentin Fallavier) is prepared in a brown flask (protected from light).
*A stock solution with a titre of 1 mM is prepared in absolute ethanol and brought to 40° C.; the flask is placed in an ultrasound cuvette to facilitate the dissolution of the product.
0.950 ml of this buffer (brought to 37° C. beforehand) is introduced into the cuvette of a spectrophotometer (Perkin-Elmer, Lambda 2) thermostatically maintained at 37° C., the measuring wavelength of which is set at 340 nm. 0.05 ml of enzymatic suspension at 37° C. is introduced into the cuvette concomitantly with the recording (corresponding to a reduction in the optical density at 340 nm). The maximum reaction rate is recorded.
The test values (containing compound (I)) are compared with the control value (without compound (I)); the results indicated represent the percentage of inhibition of PGFS at a concentration of 50 μM.

Assay [2] concerns the target T2, 15-PGDH (Homo sapiens, UniProt P15428).
T2 construct: made in house
T2 sequence (P15428 1-266): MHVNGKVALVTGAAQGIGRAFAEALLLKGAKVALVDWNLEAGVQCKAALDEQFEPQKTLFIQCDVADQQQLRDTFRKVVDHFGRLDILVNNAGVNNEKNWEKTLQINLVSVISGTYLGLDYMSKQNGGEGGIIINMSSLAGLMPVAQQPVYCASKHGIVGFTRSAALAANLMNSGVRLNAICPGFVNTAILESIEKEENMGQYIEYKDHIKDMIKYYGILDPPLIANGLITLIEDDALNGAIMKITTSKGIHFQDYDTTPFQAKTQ
Briefly: Test on 15-PGDH (spectrophotometric, PGE2/β-NAD, 340 nm). The assay is classed as biochemical. How it is done: The enzyme 15-PGDH is obtained as described in patent application FR 02/05067 filed in the name of L'Oréal, as a suspension in a medium adjusted to a concentration of 0.3 mg/ml and then blocked at −80° C. For the purposes of the test, this suspension is thawed and stored in ice.
In parallel, a 100 mM, pH 7.4 Tris buffer containing 0.1 mM of dithiothreitol (D5545, Sigma-Aldrich, L'isle D'Abeau Chesne, BP 701, 38297, Saint Quentin Fallavier), 1.5 mM of β-NAD (N6522, Sigma-Aldrich, L'isle D'Abeau Chesne, BP 701, 38297, Saint Quentin Fallavier), and 50 μM of prostaglandin E2 (P4172, Sigma-Aldrich, L'isle D'Abeau Chesne, BP 701, 38297, Saint Quentin Fallavier) is prepared.
0.965 ml of this buffer (brought to 37° C. beforehand) is introduced into the cuvette of a spectrophotometer (Perkin-Elmer, Lambda 2) thermostatically maintained at 37° C., the measuring wavelength of which is set at 340 nm. 0.035 ml of enzymatic suspension at 37° C. is introduced into the cuvette concomitantly with the recording (corresponding to an increase in the optical density at 340 nm). The maximum reaction rate is recorded.

For orientation: pIC50 means the IC50 on a negative log10 scale, so that one unit is a factor of ten. Take `COc1ccc(-n2ncc(C(=O)N3CCN(C)CC3)c2C)cc1` [Compound 2]: the negative logarithm of the IC50 (pIC50) in assay [1] is below 4.12; in assay [2] (concentration that inhibits 50% of the enzymatic activity of 15-PGDH), 5.00. In addition, in assay [2] (IC50fs/IC50dh ratio (PGF synthase vs 15-PGDH)), the Selectivity is recorded as above 7.5.

Values taken from patent US20040235831A1, “Composition for caring for the hair or the eyelashes, containing a pyrazolecarboxamide compound, use thereof for stimulating the growth of the hair and the eyelashes and/or for reducing their loss” (SOCIETE L'OREAL, S.A., priority 2002, published 2004).
